Source: patent publication US20230364118A1, “RIBITOL TREATMENT” (priority 2020, published 2023)
Entries after “also recorded” stand apart in the source; their conditions may differ. Like-named read-outs stand apart in the source and are kept apart here.

Tests used:
[1] = 7-day repeat-dose oral toxicokinetics; type: in vivo, Bama minipig; settings: for Tmax / Cmax / AUC(0-t): Bama, minipig, plasma; for AUC(0-t): read-out: AUC0-24
Procedure: Toxicokinetics were evaluated as part of a 7-day oral repeat-dose dose range finding study in Bama minipigs. […] On Days 1 and 7, blood was taken for plasma TK at 0 (pre first dose), 0.5, 1, 2, 4, 6 (pre-second dose), 6.5, 7, 8, 10, and 24 hours post-first dose.

P448L FKRP mutant mice = assay: Efficacy in P448L FKRP mutant mouse model; type: in vivo
Procedure: Glycosylation levels increased from undetectable levels to up to 26% in skeletal muscles with a reduction in disease specific pathology such as central nucleated fibers (diaphragm) and fibrosis (heart).
Ribitol was studied in a P448L FKRP mutant mouse model to assess drug-mediated improvements in matriglycan expression and muscle performance. In one study the mutant mice were treated with doses of 10 g/kg daily by oral gavage or 2.5 g/kg ribitol IV injection weekly for one month.
In a long-term efficacy study the FKRP P448L mutant mice were dosed up to one year by oral gavage. Matriglycan expression was increased as measured by immunohistochemistry and Western Blot analysis after six months of dosing at 2 g/kg, 5 g/kg, and 10 g/kg daily (FIG. 3). […] Diaphragmatic performance was assessed using whole body plethysmography (FIGS. 5A-5F).

matriglycan expression = assay: Matriglycan expression in wild type mice; type: in vivo, mouse; settings: one month, 5% ribitol in drinking water; vs vehicle
Procedure: Wild type mice were dosed with ribitol to assess matriglycan expression in normal mice. The mice were treated for one month with 5% ribitol in drinking water ad libitum. Muscle samples were evaluated for matriglycan expression at the end of dosing via Western Blot analysis (FIG. 9).

HPBLs = assay: In vitro micronucleus assay; type: cell-based, human
Procedure: In this GLP-compliant study, ribitol was tested to evaluate the potential to induce micronuclei in HPBLs in both the absence and presence of S9. HPBL cells were treated for 4 hours in the absence and presence of S9, and for 24 hours in the absence of S9. Purified water was used as the vehicle. In the preliminary toxicity assay, the doses tested ranged from 0.0152 to 152 μg/mL (1 mM), which was the limit dose for this assay.

[2] = female, po, 0.1 g/kg, 0.1 g/kg BID, Day 1, F
[3] = female, po, 0.1 g/kg, 0.1 g/kg BID, Day 7, F
[4] = female, po, 0.3 g/kg, 0.3 g/kg BID, Day 1, F
[5] = female, po, 0.3 g/kg, 0.3 g/kg BID, Day 7, F
[6] = female, po, 1 g/kg, 1.0 g/kg BID, Day 1, F
[7] = female, po, 1 g/kg, 1.0 g/kg BID, Day 7, F
[8] = male, po, 0.1 g/kg, 0.1 g/kg BID, Day 1, M
[9] = male, po, 0.1 g/kg, 0.1 g/kg BID, Day 7, M
[10] = male, po, 0.3 g/kg, 0.3 g/kg BID, Day 1, M
[11] = male, po, 0.3 g/kg, 0.3 g/kg BID, Day 7, M
[12] = male, po, 1 g/kg, 1.0 g/kg BID, Day 1, M
[13] = male, po, 1 g/kg, 1.0 g/kg BID, Day 7, M

With OC[C@@H](O)[C@@H](O)[C@@H](O)CO [ribitol, (2R,3s,4S)-Pentane-1,2,3,4,5-pentol] the drug accumulation ([1]; 7 days, up to 1.0 g/kg/dose BID) was “no apparent accumulation”, the Tmax ([1]; both sexes, oral, post first dose, Days 1 and 7, range) was 0.5 to 6.5 h and the Cmax [1, 2] was 53.1 µg/mL. The Tmax [1, 2] was 3.8 h, the AUC(0-t) [1, 2] was 284 µg·h/mL and the Cmax [1, 3] was 40.2 µg/mL. It also gave a Tmax [1, 3] of 0.8 h, an AUC(0-t) [1, 3] of 317 µg·h/mL and a Cmax [1, 4] of 112 µg/mL. The Tmax [1, 4] was 0.8 h, the AUC(0-t) [1, 4] was 676 µg·h/mL and the Cmax [1, 5] was 159 µg/mL. For the same molecule, the Tmax [1, 5] was 0.5 h, the AUC(0-t) [1, 5] was 784 µg·h/mL and the Cmax [1, 6] was 299 µg/mL. The Tmax [1, 6] was 1.3 h, the AUC(0-t) [1, 6] was 1750 µg·h/mL and the Cmax [1, 7] was 331 µg/mL. It also gave a Tmax [1, 7] of 1.3 h, an AUC(0-t) [1, 7] of 1870 µg·h/mL and a Cmax [1, 8] of 35.5 µg/mL. For the same molecule, the Tmax [1, 8] was 3.5 h, the AUC(0-t) [1, 8] was 160 µg·h/mL and the Cmax [1, 9] was 45.1 µg/mL. For the same molecule, the Tmax [1, 9] was 3.5 h, the AUC(0-t) [1, 9] was 183 µg·h/mL and the Cmax [1, 10] was 117 µg/mL. For the same molecule, the Tmax [1, 10] was 6.5 h, the AUC(0-t) [1, 10] was 504 µg·h/mL and the Cmax [1, 11] was 58.3 µg/mL. The Tmax [1, 11] was 0.5 h, the AUC(0-t) [1, 11] was 438 µg·h/mL and the Cmax [1, 12] was 308 µg/mL. It also gave a Tmax [1, 12] of 3.8 h, an AUC(0-t) [1, 12] of 169 µg·h/mL and a Cmax [1, 13] of 283 µg/mL. For the same molecule, the Tmax [1, 13] was 1.3 h, the AUC(0-t) [1, 13] was 1920 µg·h/mL and the “treadmill exhaustion running distance and running time” value (P448L FKRP mutant mice; 2, 5 g/kg/day, 5 g/kg/dose BID, 3.3 g/kg/dose TID) was “improvements”. The creatine kinase activity (P448L FKRP mutant mice; 6 months) was “decreased with increasing doses”, the “increase in running time” value (P448L FKRP mutant mice; 6 months, 2 g/kg/day) was 50-75% and the “increase in treadmill distance” value (P448L FKRP mutant mice; 6 months, 2 g/kg/day) was 50%. The efficacious dose (P448L FKRP mutant mice; FKRP mutant mouse models) was 500 mg/kg, the “glycosylation levels in skeletal muscles” value (P448L FKRP mutant mice; from undetectable levels) was “up to 26%” and the muscle histology (P448L FKRP mutant mice; long-term oral dosing) was “decreases in fibrosis”. The “levels of ribitol, ribitol-5-phosphate, CDP-ribitol in heart and leg muscles versus untreated mice” value (P448L FKRP mutant mice; oral or intravenous) was “up to 4 times”, the “matriglycan expression (Western Blot)” value (matriglycan expression) was “No increase in matriglycan expression” and the cytotoxicity (HPBLs; 0.0152 to 152 μg/mL, with and without S9) was “Cytotoxicity was not observed”. For the same molecule, the induction of micronuclei (HPBLs; 19 to 152 μg/mL, presence and absence of S9) was “negative; also recorded: devoid of genotoxicity potential”.
